Laboratory results as given in a melting point compilation (Tetko et al.; mined from patent text by program, amines drawn as free bases though some values may be those of a salt).

| Compound | melting point [°C] |
| --- | --- |
| NC(=O)C(CCCCCOc1c(Cl)ccc(C=O)c1[N+](=O)[O-])N1CCCCC1 (configuration not stated) | 98 to 99 |
| COc1ccc2c(Cc3c(Cl)cncc3Cl)nnc(Cl)c2c1 | 156 to 166 |
| COc1ccncc1NC(=O)c1c[nH]c2c1C(=O)CCC2 | 209 to 210 |
| Cc1ccc(N2CCN(Cc3n[nH]c4c(F)cccc34)CC2)cc1 | 176 to 177 |
| COc1cc2nc(N)nc(-c3ccc(O)c(F)c3)c2cc1OC | 268 to 270 |
| CCn1c(COC(=O)NC(C)=O)nc(C(C)C)c1Sc1cc(Cl)cc(Cl)c1 | 163 to 164 |
| O=C(O)CN(CCCCC(C(=O)O)N(CC(=O)O)CC(=O)O)CC(=O)O (configuration not stated) | 216 to 220 |
| CCCc1c(OCCCOc2ccc3c(c2CCC)OC(CCC#N)CC3)ccc(C(C)=O)c1O (configuration not stated) | 89 to 89.5 |
| CCCOCCOC(=O)C1=C(C)NC(C)=C(P(=O)(OC(C)C)OC(C)C)C1c1cccc([N+](=O)[O-])c1 (configuration not stated) | 125 to 126 |
| CCOCCOc1c(C)cc(C#CC2(O)CN3CCC2CC3)cc1C (configuration not stated) | 113 to 115 |
| O=C(Nc1nc(C(=O)NC2CN3CCC2CC3)cs1)c1ccc(OCc2ccccc2)cc1 (configuration not stated) | 196 |
| OC1CSC(Oc2ccccc2-c2ccno2)C(O)C1O (configuration not stated) | 200 |
| CCCCCCCCCCCCCCCCCCN1C(=O)CCC1=O | 75.8 |
| C[C@H]1C(=O)Nc2ccc(Cl)cc2N1C(=O)Cl | 194 to 195 |
| O=C(O)C1(c2ccc(Nc3nc(N4CCOCC4)nc4c3CCC4)cc2)CCC1 | 279 to 281 |
| Cc1ccc(-n2nc(CC(=O)N(C)C)c3c4ccc(Cl)cc4n(C)c3c2=O)cn1 | 253 to 255 |
| CN1CCN(c2ccc([N+](=O)[O-])cc2F)CC1 | 68 to 70 |
| CCCCN1C(=O)C(=O)C(C)=C(C#N)C1=O | 134 to 135 |
| COc1ccc(Nc2ccnc(Nc3cc(OC)c(OC)c(OC)c3)n2)cc1OC | 86 |
| CNC(=S)Nc1cc(C)ccc1N1CCOCC1 | 107 |

| Compound | melting point [°C] |
| --- | --- |
| CC(C#CC1CCC1)N(O)C(N)=O (configuration not stated) | 144 to 145 |
| CNC1C=CC(C(C)C)C2CNCC12 (configuration not stated) | 76 to 81 |
| CC1(n2cc(C(=O)O)c(=O)c3cc(F)c(N4CCC(N)C4)c(F)c32)CC1 (configuration not stated) | > 300 |
| CC(=O)N[C@@H](C)COC1CCN(c2nc3ccc(OCC(F)(F)F)cc3s2)CC1 | 129 to 131 |
| CS(=O)c1ccc(CSc2nnc(-c3ccc4ncsc4c3)o2)cc1C(F)(F)F (configuration not stated) | 179 to 180 |
| CC1=NS(=O)(=O)N(C)C(Oc2cccnc2)=N1 | 137 to 138 |
| Fc1cccc(C2=NOCCS2)c1 | 47 to 49 |
| CCc1ccc2ccc(N)nc2n1 | 170 to 172 |
| Cc1nn(C)c(C)c1C(=O)Nc1ccc(C(C(F)(F)F)C(F)(F)F)c(CC(C)C)c1 | 148 to 151 |
| OCCOc1nccc(-c2c(-c3ccc(F)cc3)ncn2C2CCC(O)CC2)n1 (configuration not stated) | 191 to 193 |
| CON=C(C(=O)O)c1cc2sccc2s1 | 116 to 117 |
| Nc1ccc(F)cc1-c1ccc(Cl)c(Cl)c1 | 58 |
| CCOC(=O)c1ncc2[nH]c3cccc(OCc4ccccc4)c3c2c1COC | 130 to 131 |
| O=c1ccc(S(=O)(=O)c2cc3cc(Cl)cc(Cl)c3[nH]2)n[nH]1 | > 250 |
| SC1=NC2(CO1)COC(S)=N2 | 200 to 202 |
| COc1ccc(Br)cc1-c1nc2ccc(OC(F)(F)F)cc2[nH]1 | 175 to 178 |
| COc1cc(Cc2cnc(N)nc2N)cc(OC)c1CN | 176 to 178 |
| CCOC(=O)c1cnc2cc(OC)ccc2c1O | > 260 |
| CCOC(=O)c1nc(N)sc1-c1cn2cc(C)ccc2n1 | 268 to 271 |
| COC(=O)C12CCc3ccccc3C1=NN(C(=O)Nc1ccc(C(F)(F)F)cc1)C2 (configuration not stated) | 177 to 180 |

Results, then the compound that gave them:

| melting point [°C] | Compound |
| --- | --- |
| 201 to 204 | O=C1c2ccccc2-c2c1c1ccccc1c(=O)n2CCO |
| 124 to 128 | CCCn1nc(C(C)C)c(C(=O)OCOC(C)=O)c1Cc1ccc(-c2ccccc2-c2nnn(C(c3ccccc3)(c3ccccc3)c3ccccc3)n2)cc1 |
| 127 | CC(=O)N[C@@H]1CN2C(=O)N(c3cc(Cl)nc(Cl)c3)C(=O)[C@@]2(Cc2ccc(OC(F)(F)F)cc2)C1 |
| 60 to 75 | CN(C(=O)CCSC(c1ccccc1)(c1ccccc1)c1ccccc1)c1nnc(-c2cccnc2)s1 |
| 155 to 158 | Cn1ncnc1-c1ccc(C(=O)N2Cc3cccn3Cc3ccccc32)cc1 |
| 168 to 169 | CC(C)(C)CCc1ccc(C(=O)NNS(=O)(=O)c2ccccc2)cc1 |
| 140 | CC#CCOc1ccc(SC(C(=O)NO)c2cccc3ccccc23)cc1 (configuration not stated) |
| 67 to 70 | COc1cc(C(=O)N2CCN(C(=O)CNC3CCN(Cc4ccccc4)CC3)C(c3ccc(Cl)c(Cl)c3)C2)cc(OC)c1OC (racemic) |
| 218 to 219 | NC(=O)Cn1ncc2c1CN=C(c1ccccc1)c1cc(Cl)ccc1-2 |
| 103 to 105 | CN(CCCCCCCCC(=O)O)c1cnc(-c2ccccc2)c(-c2ccccc2)n1 |
| 187 to 192 | CCC(C)(C)OC(=O)NC(C)(Cc1c[nH]c2ccccc12)C(=O)NC(Cc1cccs1)C(N)=O (configuration not stated) |
| 108 to 110 | COc1cccc(CSCCNC(=O)c2c(Cl)cccc2Cl)c1OC |
| 146 to 147 | CC(C)Nc1c(-c2ccc(S(C)(=O)=O)cc2)cnn(Cc2ccccc2)c1=O |
| 32.5 to 50.8 | COC(=O)C(NCC(=O)c1ccccc1)C(C)C (racemic) |
| 104 to 107 | CN(C(c1ccccc1)c1ccccc1)S(=O)(=O)CC#N |
| 138 to 139 | CCCC(=O)Nc1c(C)c(C)c2c(c1C)C(c1ccc(C)cc1)C(C)(C)O2 (configuration not stated) |
| 194 to 196 | CN(C)CNS(=O)(=O)c1ccc(-c2cnn(Cc3c(F)c(F)c(F)c(F)c3F)c(=O)c2-c2ccc(F)cc2)cc1 |
| 181 to 183 | COCn1c(-c2ccncc2)c(C)c(CO)c1-c1ccncc1 |
| 100 to 102 | CCOC(=O)CCNC(=O)CN1CC(=O)N(C)c2ccc(NC(=O)NCc3ccccc3)cc2C1=O |

| melting point [°C] | Compound |
| --- | --- |
| 96.2 to 96.7 | BrCCCCCCOc1ccc(C2c3ccc(OCc4ccccc4)cc3OCC2c2ccccc2)cc1 (configuration not stated) |
| 145 | OC(CN1CCC(c2c[nH]c3ccccc23)CC1)C1COc2ccccc2O1 (configuration not stated) |
| > 250 | CCOc1cccc2c1C(=NNc1ccc(S(N)(=O)=O)cc1)C(=O)N2 |
| 165 to 167 | O=C1CCC(N2C(=O)c3cccc(OCc4ccc(CN5CCc6ncccc6C5)cc4)c3C2=O)C(=O)N1 (configuration not stated) |
| 203 to 204 | CCCOc1ccccc1-c1nc2nc(-c3ccccc3)ncc2c(=O)[nH]1 |
| 201 to 210 | O=C(Cc1c[nH]c2ccccc12)N1CCN(C(=O)c2cc(C(F)(F)F)cc(C(F)(F)F)c2)[C@H](Cc2ccccc2)C1 |
| 134 to 136 | CCOC(=O)c1cnc(-c2ccccc2OC(C)CC)[nH]c1=O (configuration not stated) |
| 114 to 118 | CCCOc1cccc(C(=O)O)c1O |
| 219 to 221 | COc1ccc(-c2ccc(Cl)c(C(=O)NCC34CC5CC(CC(C5)C3)C4)c2)c(C(=O)O)c1 |
| 173 to 174 | CC(C)C[C@H]1[C@@H]2C(=O)N(Cc3ccccc3)C(=O)[C@@H]2[C@H](c2ccc(C#N)cc2)N1C (racemic) |
| 32 | CCCC[C@H]1CC[C@H](c2ccc(CCc3ccc(OC(F)F)cc3)cc2)CC1 |
| 201 to 203 | N#Cc1ccccc1Oc1ccc(-c2cn(C3CCOC3)c3ncnc(N)c23)cc1 (configuration not stated) |
| 254 to 255 | O=C(O)c1c[nH]c(=O)n(-c2ccccc2S)c1=O |
| 182 to 185 | COC(=O)[C@H](Cc1cccc2ccccc12)NC(=O)[C@H](CC(=O)OC(C)(C)C)NC(=O)c1cccc(NC(=O)C(Cc2ccc(C#N)cc2)NC(=O)OC(C)(C)C)c1 (mixture of isomers) |
| 123 to 125 | O=C(NCCCc1ccncc1)N(CCCc1ccccc1)C(c1ccccc1)c1ccccc1 |
| 141 to 143 | COc1ccccc1N1CCN(c2nc3cccccc-3c2C#N)CC1 |
| 249 to 251 | CC(=O)NN=C(C)c1ccc2nnn(Cc3ccc4ncccc4c3)c2n1 |
| 82 to 85 | CCOCCN(C(=O)Nc1ccc(C(=O)O)cc1)c1ccc2c(c1)C(C)(C)CCC2(C)C |
| 121 to 124 | c1ccc(-c2nc(-c3ccc4c(c3)OCO4)sc2-c2ccccc2)cc1 |

| melting point [°C] | Compound |
| --- | --- |
| 163 to 165 | CC1c2ccccc2-c2ccccc2N1S(=O)(=O)c1ccc(O)c(O)c1 (configuration not stated) |
| 207 to 211 | CC(c1oc2ccccc2c(=O)c1-c1cccc(F)c1)n1nc(-c2cncnc2)c2c(N)ncnc21 (configuration not stated) |
| 138 to 139 | COc1ccc(Cc2cc3cccc(-c4cccc(C(=O)NCCO)c4)c3s2)cn1 |
| 305 to 309 | CC(C)(C)C1=CC(=Nc2ccc(C(=O)O)cc2)C=C(C(C)(C)C)C1=O |
| 222 | O=C(N[C@H]1CC[C@H](CCN2CCN(c3nccc4c3OCC4)CC2)CC1)c1ccnc2ccccc12 |
| 127 to 128 | CCn1nc(-c2cccc(Cl)c2)c(C(C)=O)c(Nc2cccc3cccnc23)c1=O |
| 166 | O=C(O)C1CN(Cc2ccc(OCc3ccc(Cl)c(Cl)c3)cc2)C1 |
| 74.8 to 75 | CC(C)(CO)CCCCN1C(=O)c2ccccc2C1=O |
| 216 to 217 | O=C(Cl)c1ccc(-c2ccc(C(=O)Cl)cn2)nc1 |
| 168 to 170 | O=S(=O)(c1cccc2ccccc12)c1n[nH]c2ccc(OCC3CCCNC3)cc12 (configuration not stated) |
| 150 to 151 | CNc1ccc(C=CC(=O)c2ccc(NC)cc2)cc1 |
| 133 to 135 | COC(=O)c1ccc(C(=O)c2ccccc2)cc1 |
| 133 to 134 | O=C1CS(=O)(=O)c2ccccc21 |
| 224 | O=C1CN(C(=O)Cc2ccccc2Cl)N(Cc2ccc(Cl)cc2)C(=O)N1 |
| 129 | CC=CC(C)=C1C(=O)OC(=O)C1c1cc(C)n(-c2ccc(C)cc2)c1C (configuration not stated) |
| 52 to 54 | OCC(CO)c1ccccc1 |
| 160 | COC(=O)c1ccc(NS(C)(=O)=O)c(C=NO)c1 |
| 142 to 146 | CC(=O)N(O)C(C)c1cccc(Nc2ccccc2-c2nnc(N)o2)c1Cl (configuration not stated) |
| 223 to 224 | O=C(Nc1cccc2cc(CBr)cnc12)c1c(Cl)cccc1Cl |
